From US20190256499A1, “SUBSTITUTED QUINOXALINE DERIVATIVES AS INHIBITORS OF PFKFB” (priority 2016, published 2019)
≈ marks a conversion by molar mass, not a printed value.

Experiments:
[1] = Solubility PBS (thermodynamic solubility, shake flask method); format: physicochemical; conditions: phosphate buffer (PBS), aqueous buffer, thermodynamic from solid, PBS pH 7.4, 24 hours at 37° C.
Description: The method involves dissolving the test compound in a solvent at a constant temperature followed by HPLC determination of the concentration of the solute in the solution, which must not contain any undissolved particles.
Phosphate Buffer pH 7.4 is prepared by using 50 mL monobasic potassium phosphate solution 0.2 M in a 200-mL volumetric flask and adding 39.1 mL of sodium hydroxide solution 0.2 M and then adding water to volume.
Standard solution is prepared by weighing in a standard compound (about 1 mg) into a flask and dissolved completely in a solution of acetonitrile/methanol (1:1; V/V).
The sample of the test compound (about 2-3 mg) is weighed into a Uniprep® syringeless filter (5 mL; 0.45 μm), the 2 mL of solvent is added and the mixture is agitated for 24 hours at 37° C. The suspension is filtered after 24 hours and the concentration of dissolved substance is determined by HPLC. The result is stated as >x μg/mL, calculated from the sample weight taken and the volume of solvent used
Eluent A: Ultrapure water/Formic acid GR for analysis (999:1, V/V) Eluent B: Acetonitrile/Formic acid GR for analysis (999:1, V/V)
The result is determined quantitatively based on the external standard method through integration of the peak areas with reference to the figures obtained for the standard substance.
L[μg/mL]=a(A)*c(S)*F(A)/a(S)*F(S) Calculation: • a (A)=peak area for analyte/mL • a (S)=peak area for standard/mL • c (S)=concentration of standard (μg/mL) • F (A)=dilution factor for analyte • F (S)=dilution factor for standard

[2] = Microsomal stability (intrinsic clearance), mouse liver microsomes; format: in vitro ADME; set-up: microsomal CLint: dose or concentration left out as unconfirmed; conditions: mouse, liver microsomes, pH 7.4, mouse liver microsomes
Source text: A microsomal stability assay is used to measure in vitro clearance (Clint). The assay involves measuring the rate of disappearance of a compound due to its intrinsic attitude to be metabolized (“intrinsic” meaning that the disappearance is not affected by other properties like permeability, binding etc. that play a role when quantifying in vivo clearance). The microsomal stability (intrinsic clearance, Clint) and thus metabolic stability is generally given as μl/min/mg protein. It can be visualized as the volume of solution that 1 mg of microsomes is able to clear of the compound in one minute.
A Tecan Genesis workstation (RSP 150/8) was used for to perform the microsomal incubations. Analysis was carried out using a Waters ACQUITY UPLC system coupled to an ABSciex API3000 mass spectrometer. Data analysis was performed using Assay Explorer (Symyx).
Mobile phases: A=0.1% formic acid in water; B=acetonitrile
Flow rate: 0.750 mL/min; Detection: ESI, MRM; Injection: 10 μL; Column temperature: 50° C.
Potassium phosphate buffer: 0.05 M potassium phosphate buffer pH 7.4 containing 1 mM MgCl2 NADPH (nicotinamide adenine dinucleotide phosphate): 22.5 mg NADPH-Na4 in 1.8 ml potassium phosphate buffer Acetonitrile: 50 Vol % acetonitrile (1 volume acetonitrile, 1 volume water) DMSO: 20 Vol % DMSO in water Stock solution of 20 mg/ml human or mouse liver microsomes (protein)/ml in phosphate buffer Stock solution of 10 mM compound in 100% DMSO

[3] = biological target: T1, Human recombinant His-tagged PFKFB3 (Homo sapiens, UniProt Q16875); assay: PFKFB3 IC50 determination assay (modified ADP-Glo in vitro kinase assay); format: biochemical; conditions: human recombinant PFKFB3 25 nM, ATP 20 μM, fructose-6-phosphate 2 μM, 2 h, rt; read-out: PFKFB IC50
T1 construct: His; made in house
T1 sequence (Q16875 whole entry): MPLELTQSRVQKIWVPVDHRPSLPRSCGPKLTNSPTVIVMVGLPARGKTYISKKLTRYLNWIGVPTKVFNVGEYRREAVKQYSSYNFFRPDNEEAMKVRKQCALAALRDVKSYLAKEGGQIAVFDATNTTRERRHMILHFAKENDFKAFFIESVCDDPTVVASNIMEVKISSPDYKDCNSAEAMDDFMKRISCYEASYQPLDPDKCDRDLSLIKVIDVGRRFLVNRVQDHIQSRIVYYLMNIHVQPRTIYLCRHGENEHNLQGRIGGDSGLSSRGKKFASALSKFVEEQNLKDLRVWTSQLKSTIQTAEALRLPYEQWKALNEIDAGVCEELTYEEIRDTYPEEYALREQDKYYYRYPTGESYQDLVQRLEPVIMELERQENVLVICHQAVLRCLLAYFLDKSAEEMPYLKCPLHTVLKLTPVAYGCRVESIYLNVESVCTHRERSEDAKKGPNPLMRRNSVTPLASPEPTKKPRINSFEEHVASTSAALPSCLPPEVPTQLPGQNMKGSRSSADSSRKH
Description: In vitro kinase assay used to determine IC50 values for tested inhibitors is based on a modified ADP-Glo™ system (Promega) and consists of two parts:
1. Kinase reaction—performed in optimized conditions. At this step PFKFB3 phosphorylates its substrate fructose-6-phosphate using ATP as a source of phosphate to produce fructose-2,6-bisphosphate and ADP. Reaction is performed at Km values for ATP and substrate using optimized buffer composition and time of the reaction. Human recombinant His-tagged PFKFB3 (PFKFB3 BATCH II SEC) with confirmed activity is produced and purified in-house. 2. Detection of ADP as a product of the reaction using ADP-Glo™ system. This part is conducted by using the commercially available kit ADP-Glo™ Kinase Assay (Promega, cat. No# V9103) according to manufacturer's instruction, modified by 5× dilutions of assay reagents (both ADP-Glo™ Reagent and Kinase Detection Solution). Reproducibility and reliability of this modification is confirmed in an optimization process.
Test compounds are dissolved in DMSO and then transferred to the V-bottom 96-well plate. For IC50 determination ten 10× serial dilutions starting from 100 μM are prepared.
Two mixes are prepared on ice: Mix 1—containing appropriate kinase amount in 2× reaction buffer (100 mM TRIS pH 8.0) and Mix 2—containing 2.31× concentrated substrate (Fructose-6-phosphate) and ATP in MilliQ water. 15 μL per well of Mix 1 is transferred to assay wells of 96-well white plate. Next, 2 μl of 15× concentrated test compound in DMSO is added to Mix 1 for 20 min pre-incubation, followed by addition of Mix 2 (13 μl/well). Total reaction volume is 30 μL per well. Samples are tested in duplicates. Final concentration of DMSO in the reaction is 6.7%. Conditions needed for performing PFKFB3 (PFKFB3 BATCH II SEC) in vitro kinase assay are given below:
This protocol is based on Technical Bulletin, ADP-Glo™ Kinase Assay (Promega) and is adapted to 96-well plate containing 30 μL reaction mixture:
30 μL of 5× diluted ADP-Glo™ Reagent is added to each well of 96-well plate containing 30 μL of reaction mixture. The plate is incubated for 90 minutes on a shaker at rt. 60 μL of 5× diluted Kinase Detection Solution is added to each well of 96-well plate containing 60 μL of the solution (ratio of kinase reaction volume to ADP-Glo™ Reagent volume to Kinase Detection Solution volume is maintained at 1:1:2). Plate is incubated for 40 minutes on a shaker at rt, protected from light. Luminescence is measured in the plate reader Synergy 2 (BioTek).
Luminescent readouts for compounds tested in 10 concentrations (routinely from 100 μM to […], […] serial dilutions) in duplicates, as well as for positive control, are first normalized to no-substrate negative control by its subtraction. In the next step, % of normalized positive control is calculated for each data point and plotted against test compound concentration:
% of control—percent of positive control normalized to no-substrate negative control Lumcpd—luminescence of test compound Lumneg—luminescence of no-substrate negative control Lumpos—luminescence of positive control
IC50 parameter is determined by the GraphPad Prism 5.0 software [log(inhibitor) vs. response—Variable slope (four parameters)].

| Compound | solubility at 24 h [1] | microsomal CLint [2] | IC50 [3] |
| --- | --- | --- | --- |
| Cn1ccc2ccc(-c3cc(NC(c4cccnc4)c4ccc(=O)[nH]n4)cc4nccnc34)cc21 (single isomer, unassigned) [Example 2] | 10 µg/mL (≈ 21.8 µM) | 101 µL/min/mg | 28 nM |
| COc1ccc([C@@H](Nc2cc(-c3ccc4ccn(C)c4c3)c3nccnc3c2)c2cccnc2)nn1 (single isomer, unassigned) [Example 5] | 4 µg/mL (≈ 8.45 µM) | 154 µL/min/mg | 8 nM |
| Cn1cc([C@H](Nc2cc(-c3ccc4ccn(C)c4c3)c3nccnc3c2)c2cnnn2C)cn1 (single isomer, unassigned) [Example 8] | 80 µg/mL (≈ 178 µM) | 29 µL/min/mg | 5.2 nM |
| Cn1cc([C@H](Nc2cc(-c3ccc4ccn(C)c4c3)c3nccnc3c2)c2cncn2C)cn1 (single isomer, unassigned) [Example 11] | 4 µg/mL (≈ 8.92 µM) | 105 µL/min/mg | 14 nM |
| COc1ccc([C@@H](Nc2cc(-c3ccc4ccn(C)c4c3)c3nccnc3c2)c2cccnc2)cn1 [Comparative Example 4, [(S)-(6-methoxy-pyridin-3-yl)-pyridin-3-yl-methyl]-[8-(1-methyl-1H-indol-6-yl)-quinoxalin-6-yl]-amine, reference compound] | 1 µg/mL (≈ 2.12 µM) | 291 µL/min/mg | 9.9 nM |
